According to patent US6420563B1, “Small molecule modulators of G protein-coupled receptor six” (Arena Pharmaceuticals, Inc., priority 1998, dated 2002):
pIC50: −log10 of the molar value. Read-outs that look alike come from different tables or passages of the source.

Columns and labels:
[1] = Long-term (60 days) body weight, daily repeated IP administration, non-food deprived rats; type: in vivo, rat; conditions: 13.5 mg/kg IP once a day for 22 days, assessed for 60 days
Method: Long-term effects (60 days) of ARE112 were also examined. Animals (treatment, n=4; control, n=5) were treated once a day intraperitoneally with ARE112 for 22 days and assessed for a period of 60 days. On days 1 to 3, animals treated with dose of 13.5 mg/kg initially lost body weight and between day 4 and day 31, animals gradually gained weight, although still weighing less than vehicle treated animals. […] See, FIG. 11.

[2] = Locomotor activity cages (motor function); type: in vivo, rat; conditions: IP
Method: The effect of ARE112 on motor function was also examined. Motor function was assessed by using automated locomotor activity cages. Animals were placed in a standard rodent cage surrounded by photocell, which allowed for automated recording of motor activity. Animals were under no motivational constraints and were free to move around the cage.
Male Sprague-Dawley rats (n=4-9 per dose) were administered ARE112 (IP) prior to placement into in locomotor activity cages.

[3] = Basal food/water intake and body weight in non-food deprived rats, IP administration; type: in vivo, rat; conditions: for food consumed over a period of 4 hrs: dark cycle, vehicle 9 g
Method: In this test, animals were not deprived of food but were instead observed for normal activity.
Animals were administered ARE112 at 0, 6.75, 13.5, 27 and 54 mg/kg, IP 30 min prior to the beginning of their dark cycle (i.e. 6:30 pm) and were then exposed to standard rat chow pellets (i.e. 30 min after compound administration) and observed for a period of 15.5 hr post administration. […] For example, the vehicle treated animals consumed 9 g of food over a period of 4 hrs, whereas animals treated with dose of 13.5 mg/kg and 54 mg/kg consumed less than half this amount over this same period (4 and 2 g of food, respectively). […] (See, FIGS. 6B and 6C).

GPR6:Gsα-Fusion Protein = molecular target: T1, GPR6:Gsα-Fusion Protein (Homo sapiens, UniProt P46095); test: [35S]GTPγS membrane binding assay (Example 4A); type: biochemical
T1 construct: expressed in transfected cells
T1 sequence (P46095 with tags, fused parts or gaps): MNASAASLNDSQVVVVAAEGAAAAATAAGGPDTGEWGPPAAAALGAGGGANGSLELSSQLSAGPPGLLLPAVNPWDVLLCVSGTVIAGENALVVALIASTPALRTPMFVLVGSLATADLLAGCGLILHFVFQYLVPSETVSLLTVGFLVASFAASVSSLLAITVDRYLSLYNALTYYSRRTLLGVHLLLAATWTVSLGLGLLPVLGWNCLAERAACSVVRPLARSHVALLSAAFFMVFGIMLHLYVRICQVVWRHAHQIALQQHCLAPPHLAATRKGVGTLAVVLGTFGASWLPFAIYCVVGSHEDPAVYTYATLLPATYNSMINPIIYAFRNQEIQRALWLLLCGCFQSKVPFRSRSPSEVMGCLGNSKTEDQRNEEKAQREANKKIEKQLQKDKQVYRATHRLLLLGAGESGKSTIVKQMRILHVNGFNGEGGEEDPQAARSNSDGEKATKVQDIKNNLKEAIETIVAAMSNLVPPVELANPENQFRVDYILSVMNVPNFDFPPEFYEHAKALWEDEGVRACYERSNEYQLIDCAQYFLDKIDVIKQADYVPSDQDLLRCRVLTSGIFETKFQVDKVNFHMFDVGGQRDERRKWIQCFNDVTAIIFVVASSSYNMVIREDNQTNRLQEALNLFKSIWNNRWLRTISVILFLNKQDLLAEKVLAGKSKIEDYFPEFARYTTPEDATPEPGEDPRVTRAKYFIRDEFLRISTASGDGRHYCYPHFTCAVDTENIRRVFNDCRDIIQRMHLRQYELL
How it was run: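 Membranes from stable 293 cells expressing the fusion protein were pre-incubated 5-10 min at RT with compounds (10 μM final) in GDP buffer. [35S]GTPγS (0.6 nM as added) was then bound for 60 min at RT and counted after centrifugation. Inverse agonism was scored as reduced receptor-driven GTPγS binding.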

O=C(N=C1SSC2=NCCN21)c1cccs1 [ARE112, N-(5,6-dihydro-3H-imidazo[2,1-c]-1,2,4-dithiazol-3-ylidene)-thiophen-2-carboxamide]
body weight, long-term [1]: long-term decrease in body weight
locomotor activity ([2]; 1.5 hour immediately after injection): does not affect locomotor activity
locomotor activity ([2]; 16 hours post-injection): decreases locomotor activity
food consumed over a period of 4 hrs ([3]; 13.5 mg/kg IP): 4 g
food consumed over a period of 4 hrs ([3]; 54 mg/kg IP): 2 g
body weight gain ([3]; IP, non-deprived rats): decrease
water intake ([3]; IP, non-deprived rats): decrease
pIC50 (GPR6:Gsα-Fusion Protein; mean +/- standard deviation (number of assays in brackets), read-out: IC50 Values GTP Assay Example 4A): 6.38
pIC50 (GPR6:Gsα-Fusion Protein; representative IC50 curve, assay protocol of Example 4A, read-out: IC50 value against the GPR6 receptor (FIG. 4)): 6.82
